Test results as given in patent US20080312268A1, “Substituted tricyclic piperidone compounds” (Gruenenthal GMBH, priority 2005, published 2008).
Where a name gives a salt, the structure may show the parent alone.

Experiments:
5-HT re-uptake = target: T1, 5-HT re-uptake (Rattus norvegicus, UniProt P31652); assay: Measurement of serotonin re-uptake in rat brain synaptosomes; assay type: biochemical; settings: synaptosomes (P2 fraction) from medulla and pons region of male rat brains
T1 construct: Synaptosomes from rat brain areas were freshly isolated for the purposes of these in-vitro studies; from tissue; host or cells: rat brain synaptosomes (P2 fraction), medulla and pons of male rats
T1 sequence (P31652 whole entry): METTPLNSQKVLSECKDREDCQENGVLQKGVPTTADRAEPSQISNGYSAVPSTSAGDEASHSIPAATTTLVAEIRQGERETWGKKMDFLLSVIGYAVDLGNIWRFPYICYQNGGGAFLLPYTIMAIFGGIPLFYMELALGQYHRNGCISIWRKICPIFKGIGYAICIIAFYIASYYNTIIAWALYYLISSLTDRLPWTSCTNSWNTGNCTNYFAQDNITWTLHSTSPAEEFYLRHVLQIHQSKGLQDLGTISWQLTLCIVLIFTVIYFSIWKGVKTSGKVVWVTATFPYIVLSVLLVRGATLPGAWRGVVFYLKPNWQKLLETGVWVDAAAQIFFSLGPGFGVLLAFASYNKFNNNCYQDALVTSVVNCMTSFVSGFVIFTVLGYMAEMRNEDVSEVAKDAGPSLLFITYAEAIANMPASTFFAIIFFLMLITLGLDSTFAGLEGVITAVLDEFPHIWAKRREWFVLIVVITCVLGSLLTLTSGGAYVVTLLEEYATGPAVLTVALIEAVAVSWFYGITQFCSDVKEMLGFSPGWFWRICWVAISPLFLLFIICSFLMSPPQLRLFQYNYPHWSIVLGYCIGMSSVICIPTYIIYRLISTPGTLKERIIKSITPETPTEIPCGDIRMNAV
Method: Synaptosomes from rat brain areas were freshly isolated for the purposes of these in-vitro studies. In each case a “P2” fraction was used, which was prepared in accordance with the instructions given by Gray and Whittaker (E. G. Gray und V. P. Whittaker (1962) J. Anat. 76, 79-88). For 5HT uptake these vesicular particles were isolated from the medulla and pons region of male rat brains.
(§1) A detailed description of the method can be found in the literature (M. Ch. Frink, H.-H. Hennies, W. Englberger, M. Haurand and B. Wilffert (1996) Arzneim.-Forsch./Drug Res. 46 (III), 11, 1029-1036).

NA re-uptake = target: T2, NA re-uptake (Rattus norvegicus, UniProt Q63380); assay: Measurement of noradrenalin re-uptake in rat brain synaptosomes; assay type: biochemical; settings: synaptosomes (P2 fraction) from hypothalamus of male rat brains
T2 construct: Synaptosomes from rat brain areas were freshly isolated for the purposes of these in-vitro studies; from tissue; host or cells: rat brain synaptosomes (P2 fraction), hypothalamus of male rats
T2 sequence (Q63380 1-617): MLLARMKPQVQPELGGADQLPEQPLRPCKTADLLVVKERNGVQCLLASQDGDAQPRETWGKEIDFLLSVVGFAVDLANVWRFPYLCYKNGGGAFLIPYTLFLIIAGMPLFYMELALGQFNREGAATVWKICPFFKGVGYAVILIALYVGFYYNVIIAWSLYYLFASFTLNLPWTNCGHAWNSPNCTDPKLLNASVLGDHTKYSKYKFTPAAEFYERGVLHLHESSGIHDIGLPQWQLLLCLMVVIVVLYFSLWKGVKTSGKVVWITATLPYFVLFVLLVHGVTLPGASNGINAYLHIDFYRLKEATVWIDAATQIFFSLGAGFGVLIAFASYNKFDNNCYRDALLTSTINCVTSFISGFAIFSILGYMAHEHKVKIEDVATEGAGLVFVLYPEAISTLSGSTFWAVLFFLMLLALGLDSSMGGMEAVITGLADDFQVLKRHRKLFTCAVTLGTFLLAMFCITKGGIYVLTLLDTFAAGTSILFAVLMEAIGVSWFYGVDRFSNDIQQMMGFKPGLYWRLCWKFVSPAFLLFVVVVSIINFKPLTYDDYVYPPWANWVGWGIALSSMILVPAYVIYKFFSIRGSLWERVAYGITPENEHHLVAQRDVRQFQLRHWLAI
Method: Synaptosomes from rat brain areas were freshly isolated for the purposes of these in-vitro studies. In each case a “P2” fraction was used, which was prepared in accordance with the instructions given by Gray and Whittaker (E. G. Gray und V. P. Whittaker (1962) J. Anat. 76, 79-88). For NA uptake these vesicular particles were isolated from the hypothalamus of male rat brains.
as §1

Row | Compound | melting point [°C] | 5-HT re-uptake [10 μm], % inhibition (5-HT re-uptake) [%] | NA re-uptake [10 μm], % inhibition (NA re-uptake) [%]
1 | CCOC(=O)C12Cc3ccccc3C(CN(C(=O)Nc3ccccc3)C1)C2=O (stereo not drawn) | 199 to 203 | – | –
2 | CCOC(=O)C12Cc3ccc(C#N)cc3C(CN(Cc3ccccc3)C1)C2=O (stereo not drawn) | 158 to 160 | – | –
3 | CCOC(=O)C12Cc3ccccc3C(CN(C)C1)C2=O (stereo not drawn) [Compound 9, Ethyl-N-methyl-11-oxo-1,3,4,6-tetrahydro-1,5-methano-3-benzazocine-5(2H)-carboxylate hydrochloride] | – | 77 | 80

More lines, main results first:

Row | melting point [°C] | Compound | 5-HT re-uptake [10 μm], % inhibition (5-HT re-uptake) [%] | NA re-uptake [10 μm], % inhibition (NA re-uptake) [%]
4 | 117 to 119 | CCOC(=O)C12Cc3ccccc3C(CN(Cc3ccccc3)C1)C2=O (stereo not drawn) | – | –
5 | 84 to 85 | CCOC(=O)C12Cc3cc(OC)ccc3C(CN(Cc3ccccc3)C1)C2=O (stereo not drawn) | – | –
